Entries after “also recorded” stand apart in the source; their conditions may differ.
Key:
[1] = tested on: rat thoracic aorta rings, endothelium-intact (E+); experiment: Vascular reactivity: vasorelaxation in endothelium-intact (E+) aortic rings pre-contracted with Phe 1 µM; design: species or system Male Wistar normotensive rats (Rattus norvegicus); details: for IC50: Rattus norvegicus, rings pre-contracted with Phe 1 µM, cumulative 1-30 µM, mean ± SEM, read-out: IC50 vasorelaxation response in endothelium-intact (E+) aorta arterial vessels; for relaxation at the highest concentration: 30 μM, endothelium-intact aorta rings pre-contracted with Phe 1 µM
Description: (§1) All compounds were dissolved with DMSO 100% to obtain a stock solution of 10 mM. In all experiments, the stock solution was employed to obtain a final concentration diluted in Krebs Henseleit solution (vascular reactivity assay) and DMEM supplemented with 10% FBS (cytotoxicity assay).
Male Wistar normotensive rats (Rattus norvegicus) weighing between 200 and 300 grams were supplied by the Central Animal Facility of Fluminense Federal University (NAL-UFF) (Rio de Janeiro, Brazil). The animals were kept in standard environmental conditions of temperature (22 ± 1 °C) and 12 h light/dark cycle, with free access to food (Purina, Brazil) and water. All experiments were conducted in accordance to the guidelines established by National Council for Animal Experimentation Control (CONCEA, Brazil). This study was approved by the Ethics Committee in the Use of Animals of the Fluminense Federal University (CEUA-UFF), certificate under protocol number: 795/2017.
(§2) Animals were anesthetized by isoflurane (1% mg/kg) inhalation and, after the loss of motor control, rats were euthanized by cervical dislocation. Subsequently, the thoracic aorta was dissected and cleaned of connective tissue to obtain rings 4 mm in length that were suspended in a 15 mL organ bath (Panlab four chamber organ bath, AD-Instruments, Sydney, Australia). Tissues were kept in Krebs Henseleit solution at 37 °C with the following composition (mM): NaCl 120; KCl 5.0; MgCl2 1.1; CaCl2 2.5; NaH2PO4 1.2; N-[2-hydroxyethyl] piperazine-N’-[2-ethane-sulfonic acid] (HEPES) 10; NaHCO3 15; and glucose 11, bubbled constantly with a gas mixture of 95% O2 and 5% CO2 (pH 7.4). Each arterial segment was suspended between two steel hooks connected to an isometric transducer to measure tension through a data acquisition system (PowerLab 8 and LabChart Pro, AD-Instruments, Australia). […] Functional endothelial integrity was assessed by the ability of 10 µM ACh to induce ≥70% relaxation in vessels pre-contracted with 1 µM Phe.
Values are expressed as mean ± standard error of mean (SEM). A P-value less than 0.05 was termed statistically significant. The IC50 values (defined as the concentration of the test compound that reduced 50% of the maximal contraction) were obtained by actual concentration-response curve fitting using GraphPad Prism 6.0 software (GraphPad Software, San Diego, CA). Statistical significance was determined using Bonferroni´s multiple comparison for vascular reactivity experiments and using Turkey´s multiple comparison for cytotoxicity evaluation following two-way analysis of variance (ANOVA).
Figure 3 Concentration-response curves for compounds 2a–f and control (vehicle: DMSO) in intact endothelium aortic rings pre-contracted with Phe 1 µM. Cumulative concentrations (1 µM, 3 µM, 10 µM and 30 µM) were added to the Phe contraction plateau. DMSO was employed at the same volume used to dissolve the compound stock solution (maximum final concentration at 0.3%). All data are expressed as mean ± standard error of the mean (SEM) (n = 4–5). (* P < 0.05; *** P < 0.001; **** P < 0.0001 compound vs. control).

VERO cells = experiment: MTT cell viability (cytotoxicity) assay; type: cell-based, African Green monkey (Cercopithecus aethiops); details: 30 µM, 48 h exposure
Description: as §1
(§3) A 3-[4,5-dimehyl-2-thiazolyl]-2,5-diphenyl-2H-tetrazoliumbromide (MTT) assay was employed to assess the general cytotoxicity for 4-phenylquinazolin-2(1H)-one derivatives. […]
(§4) The MTT cell viability assay investigates the number of viable cells by measuring the mitochondrial-dependent reduction of water-soluble tetrazolium into an insoluble formazan product. The absorbance obtained is directly proportional to the activity of functional mitochondria and represents the number of viable cells. […] Absorbance was measured with a plate reader (SpectraMax 190, CA, USA) at a wavelength of 550 nm and expressed as a percentage of the control (vehicle).
(§5) Figure 5 Cell viability assessed by the MTT method on the VERO cell line after 48 h of exposure to the compounds. […] All data are expressed as mean ± standard error of the mean (SEM) (n = 22–25). […]

[2] = MTT cell viability (cytotoxicity) assay; type: cell-based, African Green monkey (Cercopithecus aethiops); details: African green monkey (Cercopithecus aethiops), VERO kidney cells, 48 h exposure, % of vehicle control, read-out: percentage of cell viability (living cells)
Description: as §1, §3, §4, §5

[3] = tested on: rat thoracic aorta rings, endothelium-denuded (E−); experiment: Vascular reactivity: vasorelaxation in endothelium-denuded (E−) aortic rings pre-contracted with Phe 1 µM; design: species or system Male Wistar normotensive rats (Rattus norvegicus); details: endothelium-denuded rings pre-contracted with Phe 1 µM; cumulative up to 30 µM
Description: A representative record of cumulative concentrations of compound 2f (1 μM, 3 μM, 10 μM and 30 μM) on aortic rings endothelium-intact and endothelium-denuded pre-contracted with Phe 1 μM are shown in Figure 4. Phe induced a steady tone in both preparations that were greater in endothelium denuded rings.
as §2, with “7.4).” for “7.4). Each arterial segment was suspended between two steel hooks connected to an isometric transducer to measure tension through a data acquisition system (PowerLab 8 and LabChart Pro, AD-Instruments, Australia).”
Figure 4 Concentration-response curves of compound 2f in endothelium-intact (E+) and endothelium-denuded (E−) aortic rings pre-contracted with Phe 1 µM. […] All data are expressed as mean ± standard error of the mean (SEM) (n = 4). […]

Structure (SMILES)	IC50 [1] [µM]	cytotoxicity according to ISO 10993: 5 (viability below 70% = cytotoxic) (VERO cells)	viability at 48 h, 30 µM [2] [%]	relaxation at the highest concentration [1]	vasorelaxation in the absence of the endothelium [3]
O=c1nc(-c2ccccc2)c2cc([N+](=O)[O-])ccc2[nH]1 [Compound 2b]	16.4 ± 3.5	cytotoxic; also recorded: induced cytotoxicity	69		
O=c1nc(-c2ccccc2)c2ccccc2[nH]1 [Compound 2a]	39.7 ± 6.77				
O=c1nc(-c2ccccc2F)c2cc(Cl)ccc2[nH]1 [Compound 2d]	26.5 ± 8.98				
Cn1c(=O)nc(-c2ccccc2)c2cc(Cl)ccc21 [Compound 2f]	3.41 ± 0.65			around 90%	abolished
Cc1ccccc1-c1nc(=O)[nH]c2ccc(Cl)cc12 [Compound 2c]	4.31 ± 0.9			around 90%	
O=c1nc(-c2ccccc2)c2cc(Br)ccc2[nH]1 [Compound 2e]	4.94 ± 1.21			around 90%	

Reference: PMC7146288, “Microwave Assisted Synthesis of 4-Phenylquinazolin-2(1H)-one Derivatives that Inhibit Vasopressor Tonus in Rat Thoracic Aorta” (Molecules, 2020)
